Source: patent US20060167094A1, “Satiety agent” (priority 2005, published 2006)

Assays:
[1] = test system: pancreatic bicarbonate secretion; settings: luminal fatty acid; cited from earlier work
[2] = cited from earlier work
[3] = Energy intake from the buffet meal after intraduodenal infusion; type: in vivo, human
Experimental: (§1) Each subject was studied on three occasions, separated by 3-10 days, to evaluate, in a double-blind, randomized fashion, the effects of intraduodenal infusions of 1) C12, 2) C10, or 3) control solution for 90 min on appetite perceptions, energy intake, APD pressures, and plasma CCK and GLP-1 concentrations.
(§2) Once the catheter was positioned correctly, fasting motility was monitored until the occurrence of phase III of the interdigestive migrating motor complex (MMC). Immediately after the cessation of phase III activity [at time t=−15 min], a baseline venous blood sample was taken, and a visual analog scale questionnaire (VAS) (see Measurements), assessing appetite-related sensations, was administered. At t=0 min (i.e., during phase I of the MMC), the duodenal infusion of 1) C12, 2) C10, or 3) control solution was commenced and continued for 90 min. APD pressures were monitored throughout the infusion period; blood samples were taken, and the VAS administered every 15 min from t=0 min until t=90 min. At t=90 min, the infusion was terminated, and the subject was immediately extubated and offered a cold buffet-style meal, the composition of which is provided in Table 1. The amount of food offered was in excess of what the subject was expected to consume. The subject was given 30 min (i.e., t=90 min to t=120 min) to consume the meal and instructed to eat until comfortably full. After ingestion of the meal, the subject was monitored for a further 30 min, a further VAS was completed, and blood samples were taken at t=120 and 150 min. The intravenous cannula was then removed, and the subject was allowed to leave the laboratory.
Energy intake from the buffet meal [energy consumption (in kJ) and macronutrient distribution (in % and g energy)] was analyzed using commercially available software (Food works 3.0, Xyris Software; Highgate Hill, Queensland, Australia). The time taken to finish the meal (in min) was also evaluated.

plasma GLP-1 = assay: Plasma GLP-1 concentrations by radioimmunoassay; type: in vivo, human
Experimental: as §2
(§3) Venous blood samples (10 ml) were collected in ice-chilled EDTA-treated tubes containing 400 kIU aprotinin (Trasylol, Bayer Australia) per millilitre of blood. Plasma was separated by centrifugation (3,200 rpm, 15 min, 4° C.) within 30 min of collection and stored at −70° C. until assayed.
Plasma GLP-1 concentrations (in pmol/l) were measured by radioimmunoassay using an adaptation of a previously published method (4) Antibody, supplied by Prof. […] It is likely that this antibody also reacts with the degraded form of GLP-1(9-36) amide. Intra-assay CV was 17% and interassay CV was 18%, with a sensitivity of 1.5 pmol/l.

plasma CCK = assay: Plasma CCK concentrations by radioimmunoassay; type: in vivo, human
Experimental: as §2, §3
Plasma CCK concentrations (in pmol/l) were determined after ethanol extraction using a previously described radioimmunoassay (3). A commercially available antibody (C258, Lot 105H4852, Sigma Chemical) raised in rabbits against the synthetic sulfated CCK-8 was employed. […] The intra-assay coefficient of variation (CV) was 9% and the interassay CV was 27%, with a sensitivity of 2.5 pmol/l. The sensitivity of the assay relates to its reliable detection limit.

[4] = Appetite perceptions (VAS scores) during and after 90 min intraduodenal infusion; type: in vivo, human
Experimental: as §1, §2
Appetite sensations and energy intake. Subjective sensations of appetite, including hunger, fullness, desire to eat, prospective consumption (“how much food do you think you could eat if you were given a meal now?”), were assessed using validated VASs (Sensations of nausea and bloating were also assessed. Each VAS evaluated a sensation on a 100-mm horizontal line, where 0 represented “sensation is not felt at all” and 100 represented “sensation is felt the greatest.” Subjects were asked to place a vertical stroke on the 100-mm line in relation to what they were feeling at that particular point in time.
Baseline (“0”) values were calculated as the mean of values obtained at t=−15 and 0 min for VAS scores and plasma hormone concentrations and between t=−15 to 0 min for basal pyloric pressures, number, and amplitude of IPPWs, antral and duodenal PWs, and total number of duodenal PWSs. Basal pyloric pressures and the number and amplitude of IPPWs were expressed as means over 15-min segments during the 90-min infusion period. Numbers and amplitudes of antral and duodenal PWs were expressed as total number and mean values, respectively, for the 90-min infusion period. Duodenal PWSs were expressed as the total number of waves travelling over two, three, four, five, six, and seven channels during the 90-min infusion period. All data, except for plasma CCK and GLP-1 concentrations, were expressed as changes from baseline.
VAS scores, basal pyloric pressures, number and amplitude of IPPWs, and plasma hormone concentrations were analyzed by repeated-measures mixed model analysis of covariance (ANCOVA), with baseline as the covariate and time (0-90 min, at 15-min intervals) and treatment as within-subject factors. One-way ANOVA was used to assess the effect of treatment on energy intake, time taken to complete eating, total numbers and mean amplitudes of antral and duodenal PWs, and total number of duodenal PWSs. A logarithmic transformation was applied to nausea scores, antral amplitudes, and duodenal PWSs travelling 7.5 and 9 cm to better address the underlying assumptions of the models used (as these variables lacked normal distribution). If significance or near significance ([…]) was found, post hoc comparisons of least-squares means using Student's t-tests were performed. […]

[5] = buffet meal, compared with control
[6] = during 90 min intraduodenal infusion, 0.375 kcal/min, compared with control

CCCCCCCCCCCC(=O)O [C12, lauric acid]
secretion of pancreatic bicarbonate relative to C10, C16, C18:0, C18:1 and C18:2 [1]: more than twice as much | adverse effects of perfusion into human duodenum ([2]; 0.36 kcal/min): without adverse effects | rate of emptying from the human stomach ([2]; in vivo): 0.375 kcal/min | energy intake at buffet meal ([3]; after 90 min intraduodenal infusion 0.375 kcal/min, compared with control): dramatically decreased energy intake compared with control | reduction of energy intake compared with the control infusion ([3]; all subjects, C12 total energy delivered 141 kJ): ~2,857 kJ | amount of energy (in g) ingested from carbohydrate [3, 5]: reduced | amount of energy (in g) ingested from fat [3, 5]: reduced | amount of energy (in g) ingested from protein [3, 5]: reduced | potency as suppressant of energy intake relative to C18:1 ([3]; isoenergetic amounts, intraduodenal, humans): more potent suppressant of energy intake | time at which eating from the buffet meal was completed ([3]; mean±SE, not statistically significant): 13 ± 3.5 min | energy intake in the absence of nausea ([3]; non-nauseated subjects): inhibited energy intake in the absence of nausea | magnitude of the reduction in energy intake ([3]; subjects that did not experience nausea): ~1,801 kJ | magnitude of the reduction in energy intake ([3]; subjects who reported nausea): ~3,840 kJ | delay until plasma GLP-1 concentrations rose (plasma GLP-1; after the start of infusion): 30 min | plasma GLP-1 concentrations compared with control (plasma GLP-1; during infusion, C12 effect from 30 to 90 min): increased plasma GLP-1 | plasma GLP-1 concentrations compared with C10 (plasma GLP-1; from 45 to 90 min): increased plasma GLP-1 | plasma GLP-1 concentrations after meal ingestion (plasma GLP-1; t=120 and 150 min, compared with control): higher after the C12 infusion compared with both control | GLP-1 level higher than after ingestion of the buffet meal after the control infusion (plasma GLP-1; versus level after ingestion of ~4,528 kJ): 40% | plasma CCK concentrations (plasma CCK; during 90 min infusion, compared with control): increased plasma CCK compared with control | time of rapid rise in plasma CCK (plasma CCK; from start of infusion, then plateaued): ≤ 15 min | magnitude of the rise in plasma CCK (plasma CCK; in the first 15 min of infusion, 0.375 kcal/min): ~12 pmol/L | plasma CCK level relative to postprandial level (plasma CCK; versus levels after the buffet meal following control infusion): comparable to postprandial levels after the control infusion | fullness (VAS) after meal ingestion ([4]; at 120 and 150 min, after the buffet meal): less after C12 than C10 | mean score for nausea after termination of infusion ([4]; by 120 min (infusion terminated at 90 min)): close to baseline | scores for bloating (VAS) ([4]; during 90 min intraduodenal infusion, 0.375 kcal/min): increased the scores for bloating | nausea scores (VAS) [4, 6]: increased nausea scores compared with control | scores for hunger (VAS) [4, 6]: lower compared with control | scores for prospective consumption (VAS) [4, 6]: lower compared with control | scores for desire to eat (VAS) ([4]; during 90 min intraduodenal infusion, 0.375 kcal/min, healthy males, compared with control): lower compared with control | subjects reporting nausea ([4]; during C12 infusion 0.375 kcal/min, randomized study of 8 subjects): Five of the eight
